According to PubChem BioAssay (NCI):
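Step 1: Grow cells in 96-well plates. Step 2: Expose to compound for 48 hours at 5 concentrations. Step 3: Interpolate endpoints linearly; if unreached, use highest concentration. GI50 marks 50% less growth. TGI marks complete inhibition of growth.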

Assays:
Experiment in all cases: growth of human tumour cells (NCI), 48 h
[1] = test system: OVCAR-8 ovarian
[2] = test system: MDA-MB-231 breast
[3] = test system: HOP-92 NSCLC
[4] = test system: MALME-3M melanoma
[5] = test system: SK-MEL-28 melanoma
[6] = test system: U251 CNS
[7] = test system: MDA-MB-468 breast
[8] = test system: SNB-75 CNS
[9] = test system: KM12 colon
[10] = test system: HT29 colon
[11] = test system: RXF 393 renal
[12] = test system: SNB-19 CNS
[13] = test system: HS 578T breast
[14] = test system: NCI-H226 lung
[15] = test system: OVCAR-4 ovarian
[16] = test system: SF-539 CNS
[17] = test system: MOLT-4 leukemia
[18] = test system: NCI-H460 lung
[19] = test system: SK-MEL-5 melanoma
[20] = test system: NCI/ADR-RES ovarian
[21] = test system: PC-3 prostate
[22] = test system: OVCAR-3 ovarian
[23] = test system: OVCAR-5 ovarian
[24] = test system: NCI-H522 lung
[25] = test system: CCRF-CEM leukemia
[26] = test system: SF-268 CNS
[27] = test system: HCT-15 colon
[28] = test system: HCT-116 colon
[29] = test system: TK-10 renal
[30] = test system: A498 renal
[31] = test system: UACC-257 melanoma
[32] = test system: 786-0 renal
[33] = test system: M14 melanoma
[34] = test system: T-47D breast
[35] = test system: SN12C renal
[36] = test system: SF-295 CNS
[37] = test system: MDA-MB-435
[38] = test system: K-562 leukemia
[39] = test system: A549 NSCLC
[40] = test system: ACHN renal
[41] = test system: SR leukemia
[42] = test system: SK-MEL-2 melanoma
[43] = test system: UACC-62 melanoma
[44] = test system: DU-145 prostate
[45] = test system: UO-31 renal
[46] = test system: CAKI-1 renal
[47] = test system: IGROV1 ovarian
[48] = test system: HCC-2998 colon
[49] = test system: SK-OV-3 ovarian
[50] = test system: HOP-62 NSCLC
[51] = test system: BT-549 breast
[52] = test system: MCF7 breast
[53] = test system: NCI-H23 lung
[54] = test system: EKVX NSCLC
[55] = test system: RPMI-8226 leukemia
[56] = test system: COLO 205 colon
[57] = test system: SW-620 colon
[58] = test system: LOX IMVI melanoma

## Fc1ccc(F)c(CNc2nc(SCCN3CCOCC3)nc3c2cnn3CC(Cl)c2ccc(Br)cc2)c1 (stereo unspecified)
[1]
  GI50: 3.77 µM
  TGI: > 100 µM
[2]
  GI50: 3.11 µM
  TGI: 18.6 µM
[3]
  GI50: 3.03 µM
  TGI: 23.9 µM
[4]
  GI50: 1.89 µM
  TGI: 5.15 µM
[5]
  GI50: 2.84 µM
  TGI: > 100 µM
[6]
  GI50: 3.77 µM
  TGI: > 100 µM
[7]
  GI50: 1.96 µM
  TGI: 4.88 µM
[8]
  GI50: 2.28 µM
  TGI: > 100 µM
[9]
  GI50: 3.72 µM
  TGI: > 100 µM
[10]
  GI50: 1.14 µM
  TGI: 2.68 µM
[11]
  GI50: 1.41 µM
  TGI: 4.83 µM
[12]
  GI50: 5.34 µM
  TGI: > 100 µM
[13]
  GI50: 2.6 µM
  TGI: > 100 µM
[14]
  GI50: 2.63 µM
  TGI: 8.3 µM
[15]
  GI50: 3.22 µM
  TGI: > 100 µM
[16]
  GI50: 3.57 µM
  TGI: > 100 µM
[17]
  GI50: 2.58 µM
  TGI: > 100 µM
[18]
  GI50: 3.52 µM
  TGI: > 100 µM
[19]
  GI50: 1.62 µM
  TGI: 3.01 µM
[20]
  GI50: 3.13 µM
  TGI: > 100 µM
[21]
  GI50: 2.63 µM
  TGI: 62.6 µM
[22]
  GI50: 5.71 µM
  TGI: > 100 µM
[23]
  GI50: 4.59 µM
  TGI: > 100 µM
[24]
  GI50: 3.51 µM
  TGI: 91.3 µM
[25]
  GI50: 2.81 µM
  TGI: > 100 µM
[26]
  GI50: 4.27 µM
  TGI: > 100 µM
[27]
  GI50: 1.76 µM
  TGI: 6.15 µM
[28]
  GI50: 2.61 µM
  TGI: > 100 µM
[29]
  GI50: 5.24 µM
  TGI: > 100 µM
[30]
  GI50: 4.2 µM
  TGI: > 100 µM
[31]
  GI50: 3.25 µM
  TGI: 65 µM
[32]
  GI50: 2.62 µM
  TGI: 17.3 µM
[33]
  GI50: 3.21 µM
  TGI: > 100 µM
[34]
  GI50: 2.81 µM
  TGI: 38.1 µM
[35]
  GI50: 3.22 µM
  TGI: > 100 µM
[36]
  GI50: 3.34 µM
  TGI: > 100 µM
[37]
  GI50: 2.91 µM
  TGI: 10.4 µM
[38]
  GI50: 1.77 µM
  TGI: > 100 µM
[39]
  GI50: 3.09 µM
  TGI: > 100 µM
[40]
  GI50: 3.65 µM
  TGI: > 100 µM
[41]
  GI50: 3.63 µM
  TGI: > 100 µM
[42]
  GI50: 2.04 µM
  TGI: 5.04 µM
[43]
  GI50: 1.75 µM
  TGI: 3.73 µM
[44]
  GI50: 6.12 µM
  TGI: > 100 µM
[45]
  GI50: 2.87 µM
  TGI: > 100 µM
[46]
  GI50: 3.66 µM
  TGI: > 100 µM
[47]
  GI50: 5.03 µM
  TGI: > 100 µM
[48]
  GI50: 4.13 µM
  TGI: > 100 µM
[49]
  GI50: 8.7 µM
  TGI: > 100 µM
[50]
  GI50: 6.31 µM
  TGI: > 100 µM
[51]
  GI50: 2.38 µM
  TGI: 5.96 µM
[52]
  GI50: 2.5 µM
  TGI: 8.54 µM
[53]
  GI50: 4.91 µM
  TGI: > 100 µM
[54]
  GI50: 3.9 µM
  TGI: > 100 µM
[55]
  GI50: 2.66 µM
  TGI: > 100 µM
[56]
  GI50: 2.13 µM
  TGI: 4.98 µM
[57]
  GI50: 2.78 µM
  TGI: 13.8 µM
[58]
  GI50: 2.5 µM
  TGI: 7.65 µM
